Assays:
[1] = target: T1, Tyrosine-protein phosphatase non-receptor type 1 (Rattus norvegicus) (UniProt P20417); experiment: Ratio of metformin activity to compound activity for inhibition of PTP1B in Rattus norvegicus (rat) L6 cells; assay type: cell-based
T1 sequence (whole entry): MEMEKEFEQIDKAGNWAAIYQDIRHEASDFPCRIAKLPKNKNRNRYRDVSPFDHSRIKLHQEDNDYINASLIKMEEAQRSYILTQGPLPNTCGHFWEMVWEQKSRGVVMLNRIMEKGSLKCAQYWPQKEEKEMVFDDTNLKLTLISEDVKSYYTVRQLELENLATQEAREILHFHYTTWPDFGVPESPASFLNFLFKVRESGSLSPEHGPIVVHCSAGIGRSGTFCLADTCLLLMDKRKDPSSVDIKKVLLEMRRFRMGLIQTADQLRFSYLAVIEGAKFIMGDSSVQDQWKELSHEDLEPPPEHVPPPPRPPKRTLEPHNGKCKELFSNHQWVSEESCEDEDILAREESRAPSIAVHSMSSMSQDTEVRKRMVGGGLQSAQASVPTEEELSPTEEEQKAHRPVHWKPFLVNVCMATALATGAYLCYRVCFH

Rattus norvegicus [2] = experiment: Antihyperglycemic activity in sucrose-loaded Rattus norvegicus Wistar albino (rat) diabetic model assessed as glucose reduction at 30 mg/kg measured at 24 hr relative to control; assay type: functional; parameters: scale not given: the % may be the effect or the level left
Rattus norvegicus [3] = experiment: Antihyperglycemic activity in sucrose-challenged streptozotocin-induced Rattus norvegicus Wistar albino (rat) diabetic model assessed as glucose reduction at 30 mg/kg measured at 5 hr relative to control; assay type: functional; parameters: scale not given: the % may be the effect or the level left
Rattus norvegicus [4] = experiment: Antihyperglycemic activity in sucrose-loaded Rattus norvegicus Wistar albino (rat) diabetic model assessed as glucose reduction at 30 mg/kg measured at 5 hr relative to control; assay type: functional; parameters: scale not given: the % may be the effect or the level left
[5] = target: T2, Tyrosine-protein phosphatase non-receptor type 1 (Homo sapiens) (UniProt P18031); experiment: Inhibition of Homo sapiens (human) recombinant PTP1B at 10 uM relative to control
T2 sequence (whole entry): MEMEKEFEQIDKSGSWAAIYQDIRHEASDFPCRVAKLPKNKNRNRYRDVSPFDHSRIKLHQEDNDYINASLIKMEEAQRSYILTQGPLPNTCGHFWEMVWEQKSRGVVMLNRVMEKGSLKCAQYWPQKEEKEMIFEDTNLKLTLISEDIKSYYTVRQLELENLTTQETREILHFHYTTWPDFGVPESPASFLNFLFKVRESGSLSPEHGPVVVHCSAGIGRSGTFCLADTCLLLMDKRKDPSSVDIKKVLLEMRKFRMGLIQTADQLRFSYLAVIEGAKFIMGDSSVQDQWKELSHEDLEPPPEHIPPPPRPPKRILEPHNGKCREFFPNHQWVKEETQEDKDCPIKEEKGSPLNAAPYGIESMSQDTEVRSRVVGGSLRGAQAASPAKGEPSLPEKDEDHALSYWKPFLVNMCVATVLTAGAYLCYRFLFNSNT

[6] = target: T1, Tyrosine-protein phosphatase non-receptor type 1 (Rattus norvegicus); experiment: Ratio of rosiglitazone activity to compound activity for inhibition of PTP1B in Rattus norvegicus (rat) L6 cells; assay type: cell-based
Rattus norvegicus [7] = experiment: Antihyperglycemic activity in sucrose-challenged streptozotocin-induced Rattus norvegicus Wistar albino (rat) diabetic model assessed as glucose reduction at 30 mg/kg measured at 24 hr relative to control; assay type: functional; parameters: scale not given: the % may be the effect or the level left
[8] = target: T1, Tyrosine-protein phosphatase non-receptor type 1 (Rattus norvegicus); experiment: Inhibition of PTP1B in Rattus norvegicus (rat) L6 cells assessed as cellular 2-deoxy-D-[U-14C]glucose uptake at 10 to 50 uM after 18 hr relative to control; assay type: cell-based
[9] = target: T1, Tyrosine-protein phosphatase non-receptor type 1 (Rattus norvegicus); experiment: Inhibition of PTP1B in Rattus norvegicus (rat) L6 cells assessed as cellular 2-deoxy-D-[U-14C]glucose uptake at 500 uM after 18 hr relative to control; assay type: cell-based

SMILES	Ratio [1]	Activity (Rattus norvegicus [2]) [%]	Activity (Rattus norvegicus [3]) [%]	Activity (Rattus norvegicus [4]) [%]	inhibition [5] [%]	Ratio [6]	Activity (Rattus norvegicus [7]) [%]	inhibition [8] [%]	inhibition [9] [%]
O=C(CSc1nc2ccccc2[nH]1)Nc1cccc(C(=O)O)c1	50	33	48	32	24.2	10	45	18.5	–
Cc1ccc(C(=O)Nc2ccc(S(=O)(=O)O)c3cc(S(=O)(=O)O)cc(S(=O)(=O)O)c23)cc1NC(=O)c1cccc(NC(=O)Nc2cccc(C(=O)Nc3cc(C(=O)Nc4ccc(S(=O)(=O)O)c5cc(S(=O)(=O)O)cc(S(=O)(=O)O)c45)ccc3C)c2)c1	–	–	–	–	20	–	–	–	–
CN(C)C(=N)NC(=N)N [METFORMIN]	–	17	18	13	–	–	17	–	30.2
CN(CCOc1ccc(CC2SC(=O)NC2=O)cc1)c1ccccn1 (stereo not drawn) [ROSIGLITAZONE]	–	26	21	23	–	–	24	–	–

Source: ChEMBL document CHEMBL3046186, “Identification of ZINC02765569: a potent inhibitor of PTP1B by vHTS” (2013)
